What was measured:
[1] = system: Human cytomegalovirus (HCMV), CMV strain AD 169; experiment: CMV assay (plaque reduction assay, MRC5 cells); assay type: cell-based; details: Human betaherpesvirus 5, HCMV strain AD 169
Procedure: Human cytomegalovirus (HCMV) was assayed in monolayers of either MRC5 cells (human embryonic lung) in multiwell trays. The strandard CMV strain AD 169 was used. Activity of compounds is determined in the plaque reduction assay, in which a cell monolayer is infected with a suspension of HCMV, and then overlaid with nutrient […] in the form of a gel to ensure that there is no spread of virus throughout the culture. A range of concentrations of compound of known molarity was incorporated in the nutrient agarose overlay. Plaque numbers at each concentration of drug are expressed as percentage of the control and a dose-response curve is drawn.

[2] = Cell toxicity (cell growth inhibition assay, MTT uptake); assay type: cell-based; details: monkey, 50% inhibition of cell viability at 96 hours, Vero cells, read-out: Cytoxicity CClD50
Procedure: Cell toxicity is assessed in cell growth inhibition assay. Subconfluent cultures of Vero cells grown on 96-well microtiter dishes are exposed to different dilutions of drug, and cell viability determined daily on replicate cultures using uptake of a tetrazolium dye (MTT). The concentration required for 50% inhibition of cell viability at 96 hours is termed CCID50.

SMILES | IC50 [1] [nM] | CC50 at 96 h [2] [µM]
O=C1NC(=O)c2c1c1c3cc(Cl)ccc3[nH]c1c1[nH]c3ccc(Cl)cc3c21 [12,13-Dihydro-3,9-dichloro-5H-indolo[2,3-a]pyrrolo[3,4-c]carbazole-5,7(6H)-dione] | 160 | > 125
O=C1c2c(c3c4ccccc4[nH]c3c3[nH]c4ccccc4c23)C(=O)N1Cc1cc(C(F)(F)F)cc(C(F)(F)F)c1 [12,13-Dihydro-6-(3,5-di-trifluoromethylphenylmethyl)-5H-indolo [2,3a]pyrrolo[3,4c]carbazole-5,7(6H)-dione] | 5700 | > 125
O=C1c2c(c3c4ccccc4[nH]c3c3[nH]c4ccccc4c23)C(=O)N1Cc1cccc(C(F)(F)F)c1 [12,13-Dihydro-6-(3-trifluoromethylphenylmethyl)-5H-indolo[2,3a]pyrrolo[3,4c]-carbazole-5,7-(6H)-dione] | 1200 | > 500

Source: patent US5547976A, “Further indole derivatives with antiviral activity” (Burroughs Wellcome Co., priority 1992, dated 1996)
